This assay in a line: Binding affinity to CDK4/D.

Drawing on ChEMBL document CHEMBL1150366, “Structural requirements of pyrido[2,3-d]pyrimidin-7-one as CDK4/D inhibitors: 2D autocorrelation, CoMFA and CoMSIA analyses” (Bioorg Med Chem, 2008), this text covers log(10'6/IC50) for 54 molecules.

`CCn1c(=O)ccc2cnc(Nc3ccncc3)nc21` yielded a log(10'6/IC50) of 2.93.

In turn, `CCN(CC)CCOc1ccc(Nc2ncc3ccc(=O)n(C4CCCC4)c3n2)cc1` gave a log(10'6/IC50) of 6.15.

`CCn1c(=O)ccc2cnc(Nc3ccc(O)cc3)nc21` showed a log(10'6/IC50) of 3.23.

As for `COCn1c(=O)ccc2cnc(Nc3ccccc3)nc21`, the log(10'6/IC50) worked out at 2.38.

In turn, `CCn1c(=O)ccc2cnc(Nc3ccc(-n4cccc4)cc3)nc21` showed a log(10'6/IC50) of 2.56.

In the case of `CC(C)Cn1c(=O)ccc2cnc(Nc3ccccc3)nc21`, the log(10'6/IC50) turned out to be 3.53.

On to `COCCn1c(=O)ccc2cnc(Nc3ccccc3)nc21`, for which the log(10'6/IC50) worked out at 2.54.

For `CN1CCN(c2ccc(Nc3ncc4ccc(=O)n(CCOCc5ccccc5)c4n3)cc2)CC1`, the log(10'6/IC50) turned out to be 2.68.

For `CCN(CC)CCOc1ccc(Nc2ncc3ccc(=O)n(C4CCCCC4)c3n2)cc1`, the log(10'6/IC50) worked out at 4.96.

The molecule `CN1CCN(c2ccc(Nc3ncc4ccc(=O)n(C5CCCCC5)c4n3)cc2)CC1` had a log(10'6/IC50) of 5.4.

The molecule `O=c1ccc2cnc(Nc3ccccc3)nc2n1[C@H]1C[C@H]2CC[C@H]1C2` (relative stereo) had a log(10'6/IC50) of 4.42.

Molecule `CN1CCN(c2ccc(Nc3ncc4ccc(=O)n(C5CC5)c4n3)cc2)CC1` showed a log(10'6/IC50) of 3.85.

Consider `Cn1c(=O)ccc2cnc(Nc3ccccc3)nc21`, for which the log(10'6/IC50) amounted to 2.26.

`CCn1c(=O)ccc2cnc(NC3CCCCC3)nc21`: the log(10'6/IC50) is 2.48.

`CCn1c(=O)ccc2cnc(NC(C)C)nc21` yielded a log(10'6/IC50) of 2.36.

The molecule `CCn1c(=O)ccc2cnc(Nc3ccc(N4CCOCC4)cc3)nc21` gave a log(10'6/IC50) of 3.52.

For `O=c1ccc2cnc(Nc3ccccc3)nc2n1C1CCCCC1`, the log(10'6/IC50) was 4.33.

As to `CCn1c(=O)ccc2cnc(N(C)c3ccccc3)nc21`, the log(10'6/IC50) is 1.4.

Consider `O=c1ccc2cnc(Nc3ccccc3)nc2n1CC1CO1` (centres undefined), for which the log(10'6/IC50) was found to be 2.3.

As to `O=c1ccc2cnc(Nc3ccccc3)nc2n1C1CCCC1`, the log(10'6/IC50) is 3.68.

For `CCC(C)n1c(=O)ccc2cnc(Nc3ccccc3)nc21` (centres undefined), the log(10'6/IC50) is 3.72.

In turn, `CN1CCN(c2ccc(Nc3ncc4ccc(=O)n(CC(O)CO)c4n3)cc2)CC1` (centres undefined) returned a log(10'6/IC50) of 2.78.

Take `CC(C)n1c(=O)ccc2cnc(Nc3ccc(N4CCN(C)CC4)cc3)nc21`: the log(10'6/IC50) came to 4.49.

The molecule `CCn1c(=O)ccc2cnc(Nc3ccc(F)cc3)nc21` registered a log(10'6/IC50) of 2.91.

For `COC(=O)Cn1c(=O)ccc2cnc(Nc3ccccc3)nc21`, the log(10'6/IC50) came to 1.51.

The molecule `CCn1c(=O)ccc2cnc(Nc3ccc(O)c(OC)c3)nc21` displayed a log(10'6/IC50) of 2.74.

The molecule `CN1CCN(c2ccc(Nc3ncc4ccc(=O)n(C5CCCC5)c4n3)cc2)CC1` registered a log(10'6/IC50) of 5.05.

On to `CCn1c(=O)ccc2cnc(Nc3cccc(OC)c3)nc21`, for which the log(10'6/IC50) amounted to 1.4.

For `CC(C)CCn1c(=O)ccc2cnc(Nc3ccc(N4CCN(C)CC4)cc3)nc21`, the log(10'6/IC50) came out at 4.89.

For the molecule `CCn1c(=O)ccc2cnc(Nc3ccc(OC)cc3)nc21`, the log(10'6/IC50) turned out to be 3.22.

`CCCn1c(=O)ccc2cnc(Nc3ccccc3)nc21` returned a log(10'6/IC50) of 3.26.

Molecule `CCn1c(=O)ccc2cnc(NC(C)(C)C)nc21` came in with a log(10'6/IC50) of 2.28.

For the molecule `CCn1c(=O)ccc2cnc(Nc3cccc(F)c3)nc21`, the log(10'6/IC50) amounted to 2.85.

Take `CCN(CC)CCOc1ccc(Nc2ncc3ccc(=O)n(CC)c3n2)cc1`: the log(10'6/IC50) amounted to 3.8.

`CCOCCn1c(=O)ccc2cnc(Nc3ccccc3)nc21` returned a log(10'6/IC50) of 2.11.

On to `O=c1ccc2cnc(Nc3ccccc3)nc2n1CC1CCCCC1`, for which the log(10'6/IC50) turned out to be 1.87.

In turn, `CCN(CC)CCOc1ccc(Nc2ncc3ccc(=O)n([C@H]4C[C@H]5CC[C@H]4C5)c3n2)cc1` (relative stereo) showed a log(10'6/IC50) of 3.35.

Molecule `CCn1c(=O)ccc2cnc(Nc3cccc(OC(F)(F)C(F)F)c3)nc21` returned a log(10'6/IC50) of 2.11.

As to `CCn1c(=O)ccc2cnc(NCc3ccccc3)nc21`, the log(10'6/IC50) came out at 1.4.

Molecule `CC(C)CCn1c(=O)ccc2cnc(Nc3ccccc3)nc21` returned a log(10'6/IC50) of 3.8.

As for `CCn1c(=O)ccc2cnc(Nc3ccc(N4CCN(C)CC4)cc3)nc21`, the log(10'6/IC50) came to 4.07.

Consider `CCn1c(=O)ccc2cnc(Nc3ccc(OC)c(OC)c3)nc21`, for which the log(10'6/IC50) was determined as 2.39.

`CCNc1ncc2ccc(=O)n(CC)c2n1` had a log(10'6/IC50) of 1.92.

The molecule `O=c1ccc2cnc(Nc3ccccc3)nc2n1C1CCCCCC1` showed a log(10'6/IC50) of 3.74.

For the molecule `CCn1c(=O)ccc2cnc(Nc3ccccc3)nc21`, the log(10'6/IC50) was 3.21.

`CN1CCN(c2ccc(Nc3ncc4ccc(=O)n([C@H]5C[C@H]6CC[C@H]5C6)c4n3)cc2)CC1` (relative stereo): the log(10'6/IC50) was found to be 5.22.

With `CN1CCN(c2ccc(Nc3ncc4ccc(=O)n(-c5ccccc5)c4n3)cc2)CC1`, the log(10'6/IC50) was determined as 3.76.

Take `CCN(CC)CCOc1ccc(Nc2ncc3ccc(=O)n(C(C)C)c3n2)cc1`: the log(10'6/IC50) worked out at 4.35.

In turn, `O=c1ccc2cnc(Nc3ccccc3)nc2n1-c1ccccc1` displayed a log(10'6/IC50) of 2.78.

Molecule `O=c1ccc2cnc(Nc3ccccc3)nc2n1Cc1ccccc1` returned a log(10'6/IC50) of 3.03.

`CCN(CC)CCOc1ccc(Nc2ncc3ccc(=O)n(C4CCCCCC4)c3n2)cc1` had a log(10'6/IC50) of 5.4.

As to `CCn1c(=O)ccc2cnc(Nc3ccc(OCCOC)cc3)nc21`, the log(10'6/IC50) came to 2.63.

Molecule `CC(C)n1c(=O)ccc2cnc(Nc3ccccc3)nc21` registered a log(10'6/IC50) of 3.84.

Take `CCCCn1c(=O)ccc2cnc(Nc3ccccc3)nc21`: the log(10'6/IC50) was 2.83.
